Measured values published in ChEMBL document CHEMBL4390642, “The in vivo antinociceptive and μ-opioid receptor activating effects of the combination of N-phenyl-2',4'-dimethyl-4,5'-bi-1,3-thiazol-2-amines and naloxone” (Eur J Med Chem, 2019).
pEC50: −log10 of the molar value. Calls of active or inactive are those of the source. The calls are words filed in the database; no cut-off is given here.

What was measured:
[1] = molecular target: T1, Mu-type opioid receptor (Homo sapiens, UniProt P35372); experiment: Agonist activity at human mu opioid receptor expressed in CHOK1 cells coexpressing Galpha15 assessed as increase in intracellular calcium flux in presence of mu opioid receptor antagonist naloxone and incubated for 1 hr measured for 90 secs at 1.5 sec interval by FLIPR assay; format: functional, cell-based
[2] = molecular target: T1, Mu-type opioid receptor; experiment: Agonist activity at human mu opioid receptor expressed in CHOK1 cells coexpressing Galpha15 assessed as intracellular calcium AUC in presence of mu opioid receptor antagonist naloxone and incubated for 1 hr measured for 90 secs at 1.5 sec interval by FLIPR assay to morphine; format: functional, cell-based; set-up: concentration or dose not given beside the values
[3] = test system: Mus musculus; experiment: Antinociceptive activity in C57BL/6 mouse model of thermal-induced nociception assessed as inhibition of tail-flick response at 100 mg/kg, iv measured up to 30 to 180 mins in presence of opioid receptor antagonist naloxone at 100 ng/kg, sc by tail flick test; format: functional, organism-based
[4] = test system: Mus musculus; experiment: (§1) Antinociceptive activity in C57BL/6 mouse model of thermal-induced nociception assessed as inhibition of tail-flick response by measuring AUC of tail flick test at 100 mg/kg, iv measured up to 30 to 180 mins in presence of 10 mg/kg, sc opioid receptor antagonist naloxone by tail flick test; format: functional, organism-based
[5] = test system: Mus musculus; experiment: Antinociceptive activity in C57BL/6 mouse model of thermal-induced nociception assessed as inhibition of tail-flick response at 100 mg/kg, iv measured at 30 mins in presence of opioid receptor antagonist naloxone at 100 ng/kg, sc by tail flick test; format: functional, organism-based
[6] = test system: Mus musculus; experiment: Antinociceptive activity in C57BL/6 mouse model of thermal-induced nociception at 100 mg/kg measured at 30 mins post injection by tail flick test; format: functional, organism-based
[7] = Toxicity in iv dosed C57BL/6 mouse assessed as safe dose causing no animal death measured up to 30 to 180 mins during tail-flick test; format: organism-based; conditions: in vivo
[8] = test system: Mus musculus; experiment: as §1, with “assessed as naloxone ED50 for inhibition of” for “assessed as inhibition of”; format: functional
[9] = Toxicity in C57BL/6 mouse at 100 mg/kg, iv measured up to 30 to 180 mins during tail-flick test; format: organism-based; conditions: in vivo
[10] = test system: Mus musculus; experiment: Antinociceptive activity in C57BL/6 mouse model of thermal-induced nociception assessed as inhibition of tail-flick response by measuring AUC of tail flick test at 25 mg/kg, iv measured up to 30 to 180 mins in presence of 10 mg/kg, sc opioid receptor antagonist naloxone by tail flick test; format: functional, organism-based
[11] = test system: Mus musculus; experiment: Antinociceptive activity in C57BL/6 mouse model of thermal-induced nociception assessed as inhibition of tail-flick response by measuring AUC of tail flick test at 50 mg/kg, iv measured up to 30 to 180 mins in presence of 10 mg/kg, sc opioid receptor antagonist naloxone by tail flick test; format: functional, organism-based
[12] = test system: Mus musculus; experiment: Antinociceptive activity in C57BL/6 mouse model of thermal-induced nociception assessed as inhibition of tail-flick response by measuring AUC of tail flick test at 25 to 100 mg/kg, iv measured up to 30 to 180 mins in presence of 10 mg/kg, sc opioid receptor antagonist naloxone by tail flick test; format: functional, organism-based
[13] = test system: Mus musculus; experiment: Antinociceptive activity in C57BL/6 mouse model of thermal-induced nociception at 100 mg/kg, sc measured up to 30 to 180 mins by tail flick test; format: functional, organism-based

T1 sequence (P35372 whole entry): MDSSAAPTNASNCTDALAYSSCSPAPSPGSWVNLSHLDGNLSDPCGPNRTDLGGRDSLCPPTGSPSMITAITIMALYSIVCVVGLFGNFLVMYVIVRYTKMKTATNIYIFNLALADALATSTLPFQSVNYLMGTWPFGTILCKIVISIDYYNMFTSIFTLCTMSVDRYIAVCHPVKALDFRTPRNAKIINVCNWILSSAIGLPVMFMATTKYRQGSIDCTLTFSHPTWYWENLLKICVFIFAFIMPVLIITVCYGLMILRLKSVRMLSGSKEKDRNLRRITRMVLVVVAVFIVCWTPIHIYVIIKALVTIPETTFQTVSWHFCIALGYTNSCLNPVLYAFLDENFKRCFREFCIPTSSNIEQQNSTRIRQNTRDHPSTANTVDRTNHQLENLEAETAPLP

Q: What does the source list for `CCc1ccccc1Nc1ncc(-c2sc(C)nc2C)o1`?
A: pEC50 [1]: 4.88; Activity [2]: 34.4%

Q: For `CCc1ccccc1Nc1nc(-c2sc(C)nc2C)cs1`, which Activity [3] is on record?
A: Active

Q: And the AUC [4]?
A: 384 min.sec

Q: What about the Activity [5] of the same compound?
A: inactive

Q: And the Activity [6]?
A: inactive

Q: What about the Activity [7] of the same compound?
A: 100 mg/kg

Q: And the ED50 [8]?
A: 17.5 mg/kg

Q: And the Activity [9]?
A: Non-Toxic

Q: And the AUC [10]?
A: 115 min.sec

Q: And the AUC [11]?
A: 160 min.sec

Q: And the Activity [12]?
A: Dose-dependent effect

Q: With `CCc1ccccc1Nc1nc(-c2sc(N)nc2C)cs1` as the compound, how does the pEC50 [1] read?
A: < 4.52

Q: And the Activity [2]?
A: inactive

Q: With `CCc1ccccc1Nc1nc(-c2sc(-c3ccccc3)nc2C)cs1` as the compound, how does the pEC50 [1] read?
A: < 4.52

Q: What about the Activity [2] of the same compound?
A: inactive

Q: What does the source list for `COc1cccc(Nc2nc(-c3sc(C)nc3C)cs2)c1C`?
A: pEC50 [1]: 5.48; Activity [2]: 27.2%

Q: With `Cc1nc(C)c(-c2csc(Nc3c(C)cccc3F)n2)s1` as the compound, how does the pEC50 [1] read?
A: 5.38

Q: And the Activity [2]?
A: 32%

Q: With `CCc1cc(Br)ccc1Nc1nc(-c2sc(C)nc2C)cs1` as the compound, how does the pEC50 [1] read?
A: 5.31

Q: And the Activity [2]?
A: 5.9%

Q: With `COc1ccc(Nc2nc(-c3sc(C)nc3C)cs2)c(OC)c1` as the compound, how does the pEC50 [1] read?
A: 4.72

Q: What about the Activity [2] of the same compound?
A: 45.2%

Q: With `CCc1ccccc1Nc1nc(-c2sc(NC(C)=O)nc2C)cs1` as the compound, how does the pEC50 [1] read?
A: < 4.52

Q: And the Activity [2]?
A: inactive

Q: With `CCc1ccccc1Nc1nc(-c2nccs2)cs1` as the compound, how does the pEC50 [1] read?
A: < 4.52

Q: What about the Activity [2] of the same compound?
A: inactive

Q: With `Cc1nc(C)c(-c2csc(Nc3ccc(Br)cc3C)n2)s1` as the compound, how does the pEC50 [1] read?
A: < 4.52

Q: What about the Activity [2] of the same compound?
A: inactive

Q: What does the source list for `CCc1ccccc1Nc1nc(-c2sc(C)nc2C)c(C)s1`?
A: pEC50 [1]: < 4.52; Activity [2]: inactive

Q: What does the source list for `COc1ccc(Nc2nc(-c3sc(C)nc3C)cs2)c(C)c1`?
A: pEC50 [1]: 4.85; Activity [2]: 32.6%

Q: Which results are given for `CCc1cccc(C)c1Nc1nc(-c2sc(C)nc2C)cs1`?
A: pEC50 [1]: 5.55; Activity [2]: 38.2%

Q: What does the source list for `Cc1nc(C)c(-c2csc(Nc3ccc(Br)cc3C(F)(F)F)n2)s1`?
A: pEC50 [1]: 4.86; Activity [2]: 32.9%

Q: With `Cc1nc(C)c(-c2csc(Nc3ccccc3CC(F)(F)F)n2)s1` as the compound, how does the pEC50 [1] read?
A: 5.07

Q: And the Activity [2]?
A: 72.1%

Q: With `Cc1nc(C)c(-c2csc(Nc3c(C(C)C)cccc3C(C)C)n2)s1` as the compound, how does the pEC50 [1] read?
A: < 4.52

Q: And the Activity [2]?
A: inactive

Q: With `Cc1cc(C)c(Nc2nc(-c3oc(C)nc3C)cs2)c(C)c1` as the compound, how does the pEC50 [1] read?
A: 5.41

Q: What about the Activity [2] of the same compound?
A: 43.2%

Q: What does the source list for `CCc1ccccc1Nc1nc(C)cs1`?
A: pEC50 [1]: < 4.52; Activity [2]: inactive

Q: For `C=CCN1CC[C@]23c4c5ccc(O)c4O[C@H]2C(=O)CC[C@@]3(O)[C@H]1C5`, which Activity [13] is on record?
A: inactive

Q: With `Cc1cc(C)c(Nc2nc(-c3sc(C)nc3C)cs2)c(C)c1` as the compound, how does the pEC50 [1] read?
A: 5.21

Q: And the Activity [2]?
A: 52%

Q: With `CCc1nc(C)c(-c2csc(Nc3ccccc3CC)n2)s1` as the compound, how does the pEC50 [1] read?
A: 5.07

Q: What about the Activity [2] of the same compound?
A: 32.5%

Q: Which results are given for `Cc1nc(C)c(-c2csc(N)n2)s1`?
A: pEC50 [1]: < 4.52; Activity [2]: inactive

Q: With `Cc1ccc(Nc2nc(-c3sc(C)nc3C)cs2)c(C)c1` as the compound, how does the pEC50 [1] read?
A: 5.06

Q: And the Activity [2]?
A: 57.2%

Q: Which results are given for `Cc1nc(C)c(-c2csc(Nc3cccc(F)c3C)n2)s1`?
A: pEC50 [1]: 5.00; Activity [2]: 57.9%

Q: With `CCc1ccccc1Nc1nc(-c2oc(C)nc2C)cs1` as the compound, how does the pEC50 [1] read?
A: 5.48

Q: What about the Activity [2] of the same compound?
A: 76.2%
